Key:
[1] = system: L1210 leukemia cells (L1210/PDD); test: In vitro cytotoxicity / cross-resistance, L1210/PDD (L1210/DDP) cells resistant to cisdiamminedichloroplatinum(II); assay type: cell-based; settings: for ID50 L1210/DDP: Tables VII and VIII, 5760 min
Method: Four ml of cell suspension were added to culture tubes and the appropriate concentration (0.01, 0.1, 1 or 10 μg/ml final drug concentration) was added. After 96 hours the cell concentration of control and experimental cultures were calculated with the aid of a Coulter Counter® Model ZBf and the percent inhibition calculated.

[2] = system: Wild type L1210 leukemic cells; test: In vitro cytotoxicity, wild type L1210 leukemic cells (L1210/0); assay type: cell-based; settings: for ID50 L1210/0: L1210/0, protocol of Example 14, Tables VII and VIII, 4320 min; for ID50: L1210, 72 hours incubation
Method: Four ml of cell suspension (10^5 cells/ml) are added to culture tubes and the appropriate concentration (0.01, 0.1, 1 or 10 μg/ml final concentration) of drug added to the culture tubes. After 72 hours of incubation, the cell concentration of control and experimental cultures are determined with the aid of a Coulter Counter® Model ZBf and the percent inhibition calculated. […]

L1210/0 leukemia cells = test: In vivo anti-tumor activity, L1210 (L1210/0), multiple i.p. doses; design: species or system BDF1 mice; settings: for Maximal Effective Dose: i.p. on days 1, 5 and 9
Method: BDF1 mice were inoculated intraperitoneally with 10^6 L1210 cells. About 24 hours after inoculation of the cells, the mice were injected intraperitoneally with varying dosages of complexes of the present invention. Six mice were used for each dosage level in each experiment with an equal number of control mice inoculated with 10^6 L1210 cells and left untreated with a given complex. The results [%T/C=(survival time of treated animals/survival time of control animals)×100] are set forth below. Long term survival signifies that animals were alive 60 days after inoculation with L1210 cells.
The procedure of Example 16 was repeated except that the treated animals were injected with multiple doses of the complex as indicated below:
The anti-tumor activity of compound number 3 was evaluated against cells sensitive to (L1210/0) and resistant to (L1210/PDD) the standard platinum complex cis-diamminedichloroplatinum(II).
The following complexes were tested in vivo oncolytic activity following 3 i.p. injections (days 1, 5, 9) according to the protocol described in Examples 16 and 17.
BDF1 mice were innoculated intraperitoreally with 10^6 L1210 leukemia cells and treatment was begun on the next day (day 1). Two treatment schedules, i.e. single i.p. injection of the drug and i.p. injections on days 1, 5 and 9 according to the protocol described in Examples 16 and 17 were used.

B16 cells = test: Melanotic melanoma test, i.p. inoculated B16 melanoma; assay type: in vivo, BDF1 mice; settings: for Maximal Effective Dose: B16, i.p. days 1, 5 and 9; for % T/C / Long Term Survivors: B16, i.p. days 1, 5 and 9, at maximal effective dose; for Long Term Survivors: 60 days
Method: The animals used were BDF1 mice, all of the same sex, weighing a minimum of 18 g. and all within a 4 g. weight range. There were 6 animals per test group. […] The test compounds were administered intraperitoneally on days 1, 5 and 9 at various doses. The animals were weighed and survivors were recorded on a regular basis for 60 days. The median survival time and the ratio of survival time for treated (T)/control (C) animals were calculated. […] The criterion for efficacy is T/C×100≥125%.

Male albino mice = test: Acute toxicity, single intraperitoneal injection (Example 19); assay type: in vivo; settings: single i.p.
Method: Fourteen days after treatment all surviving mice were sacrified and the LD10, LD50 and LD90 were calculated.

L1210 cells = test: In vivo anti-tumor activity, L1210, single i.p. injection; design: species or system BDF1 mice; settings: single i.p.
Method: About 24 hours after inoculation of the cells, the mice were injected intraperitoneally with varying dosages of complexes of the present invention. […] Long term survival signifies that animals were alive 60 days after inoculation with L1210 cells.

[3] = Tables X and XI, days 1, 5 and 9, at maximal effective dose, alive 60 days after tumor inoculation
[4] = Tables X and XI, i.p. on days 1, 5 and 9, at maximal effective dose

In the case of CN(CC(=O)[O-])CC(=O)[O-].N[C@@H]1CCCC[C@H]1N.[Pt+2] [Identifier No. 11a, mono-N--methyliminodiacetato], the “ID50 L1210/DDP” value [1] is reported as 1.9 µg/mL, the “ID50 L1210/0” value [2] is reported as 0.8 µg/mL and the “Long Term Survivors” value (L1210/0 leukemia cells; [3]) is reported as 6/6. For the same compound, the “Maximal Effective Dose” value (L1210/0 leukemia cells; Tables X and XI) was 6.25 mg/kg, the “% T/C” value (L1210/0 leukemia cells; [4]) was 700% and the “Maximal Effective Dose” value (B16 cells) was 25 mg/kg. For the same compound, the “% T/C” value (B16 cells) was 210% and the “Long Term Survivors” value (B16 cells) was 2/6.
In the case of N[C@@H]1CCCC[C@H]1N.O=C([O-])CN(CCO)CC(=O)[O-].[Pt+2] [Identifier No. 12a, mono-N--hydroxyethyliminodiacetato], the “ID50 L1210/DDP” value [1] is reported as 1.8 µg/mL, the “ID50 L1210/0” value [2] is reported as 1.4 µg/mL and the “Long Term Survivors” value (L1210/0 leukemia cells; [3]) is reported as 2/6. The “Maximal Effective Dose” value (L1210/0 leukemia cells; Tables X and XI) was 6.25 mg/kg, the “% T/C” value (L1210/0 leukemia cells; [4]) was 384% and the “Maximal Effective Dose” value (B16 cells) was 25 mg/kg. The “% T/C” value (B16 cells) was 265% and the “Long Term Survivors” value (B16 cells) was 4/6.
For “cis-bis-D-monosaccharato(DACH)Pt(II).3H2 O [Compound 8]”, the “ID50 L1210/PDD” value ([1]; L1210/PDD, 96 hours) was 0.9 µg/mL, the ID50 [2] was 2.8 µg/mL and the DEATHS/TREATED (Male albino mice; 100 mg/kg) was 1/6. The DEATHS/TREATED (Male albino mice; 125 mg/kg) was 1/6, the DEATHS/TREATED (Male albino mice; 158 mg/kg) was 4/6 and the DEATHS/TREATED (Male albino mice; 200 mg/kg) was 3/6. For the same compound, the DEATHS/TREATED (Male albino mice; 250 mg/kg) was 6/6, the “Calculated LD10” value (Male albino mice; 14 days) was 115 mg/kg and the “Calculated LD50” value (Male albino mice; 14 days) was 155 mg/kg. For the same compound, the “Calculated LD90” value (Male albino mice; 14 days) was 220 mg/kg, the “% T/C” value (L1210 cells; 12.5 mg/kg) was 120% and the “% T/C” value (L1210 cells; 25 mg/kg) was 129%. The “% T/C” value (L1210 cells; 50 mg/kg) was 156%, the “% T/C” value (L1210 cells; 100 mg/kg) was 151% and the “% T/C” value (L1210 cells; 200 mg/kg) was “Toxic”. The “% T/C” value (L1210/0 leukemia cells; 25 mg/kg, days 1,5,9) was 206%, the “% T/C” value (L1210/0 leukemia cells; 50 mg/kg, days 1,5,9) was 225% and the “Long Term Survivors” value (L1210/0 leukemia cells; 50 mg/kg, days 1,5,9) was 1/6.
“furanedicarboxylato(DACH)Pt(II) [Compound 19]” was tested, and the “ID50 L1210/DDP” value [1] was 0.9 µg/mL, the ID50 [2] was 1.0 µg/mL and the “% T/C” value (L1210 cells; 6.25 mg/kg) was 143%. The “% T/C” value (L1210 cells; 12.5 mg/kg) was 136%, the “% T/C” value (L1210 cells; 25 mg/kg) was 136% and the “% T/C” value (L1210 cells; 50 mg/kg) was “Toxic”.
In the case of “isocitratomonoethylester(DACH)Pt(II).1.5H2 O [Compound 21]”, the “ID50 L1210/DDP” value [1] is reported as 1.9 µg/mL and the ID50 [2] is reported as 2.0 µg/mL.
With “mono-N--benzyliminodiacetato [Identifier No. 15a]” the “ID50 L1210/DDP” value [1] was 2.4 µg/mL, the “ID50 L1210/0” value [2] was 1.0 µg/mL and the “Long Term Survivors” value (L1210/0 leukemia cells; [3]) was 4/6. For the same compound, the “Maximal Effective Dose” value (L1210/0 leukemia cells; Tables X and XI) was 6.25 mg/kg, the “% T/C” value (L1210/0 leukemia cells; [4]) was 620% and the “Maximal Effective Dose” value (B16 cells) was 12.5 mg/kg. For the same compound, the “% T/C” value (B16 cells) was 252% and the “Long Term Survivors” value (B16 cells) was 3/6.
In the case of “mono-N--phenyliminodiacetato [Identifier No. 14a]”, the “ID50 L1210/DDP” value [1] is reported as 0.6 µg/mL, the “ID50 L1210/0” value [2] is reported as 0.7 µg/mL and the “Long Term Survivors” value (L1210/0 leukemia cells; [3]) is reported as 4/6. The “Maximal Effective Dose” value (L1210/0 leukemia cells; Tables X and XI) was 6.25 mg/kg, the “% T/C” value (L1210/0 leukemia cells; [4]) was 578% and the “Maximal Effective Dose” value (B16 cells) was 25 mg/kg. The “% T/C” value (B16 cells) was 160% and the “Long Term Survivors” value (B16 cells) was 3/6.
